Measurements reported in patent publication US10723699B2 (Hyundai Pharm Co., Ltd., priority 2015, dated 2020).
“Also recorded” adds a separate entry of the source. Like-named read-outs stand apart in the source and are kept apart here.

Legend:
[1] = tested on: diet-induced obesity (DIO) rat model; assay: Changes in weights in diet-induced obesity (DIO) rat model, 4-week administration; format: in vivo, Sprague Dawley (SD) rats; conditions: 5 mg/kg oral, 4 weeks
Procedure: To simultaneously evaluate both the weight-loss and hypoglycemic effects of the cyclohexene derivative according to the present invention, experiments were carried out, as follows.
Specifically, male Sprague Dawley (SD) rats (approximately 4 weeks old) in a diet-induced obesity model were fed with a high-fat diet (Lab. Diet Co.) for approximately 10 weeks to induce high-fat diet-induced obesity (DIO). The rats undergoing the high-fat diet were randomly selected, and divided into groups (n=8) for respective administrations. The compounds of Comparative Examples 3 and 4 and Examples 48 and 119 were administered to the divided DIO rats each group for 4 weeks.
The weights of the DIO rats were measured twice a week during a period of administration of 4 weeks to record a change in the weights. At the end of the 4-week period of administration, a hypoglycemic effect was evaluated using an oral glucose tolerance test (OGTT), as follows.

[2] = biological target: T1, G protein-coupled receptor 119 (GPR-119) (Mesocricetus auratus, UniProt A0A1U8CD06); assay: cAMP activity in HIT-T15 cells (cAMP dynamic kit, FRET); format: cell-based, hamster
T1 construct: hamster-derived β-cells containing G protein-coupled receptor 119 (GPR-119), HIT-T15 cells; host or cells: HIT-T15 (hamster pancreatic β-cells)
T1 sequence (A0A1U8CD06 1-334): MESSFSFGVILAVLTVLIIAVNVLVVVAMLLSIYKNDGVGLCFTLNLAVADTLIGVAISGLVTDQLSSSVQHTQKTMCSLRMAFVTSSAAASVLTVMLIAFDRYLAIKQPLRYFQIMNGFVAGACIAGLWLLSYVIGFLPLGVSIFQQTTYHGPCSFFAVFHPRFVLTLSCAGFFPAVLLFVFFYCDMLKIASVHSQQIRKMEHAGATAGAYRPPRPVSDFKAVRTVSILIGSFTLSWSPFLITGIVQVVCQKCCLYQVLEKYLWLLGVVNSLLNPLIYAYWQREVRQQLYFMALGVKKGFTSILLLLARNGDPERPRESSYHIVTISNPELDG
In short: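 Hamster HIT-T15 cells (60,000/well) were treated next day with compound at six concentrations, 0.0032–10 μM, for 1 h at 37° C. Cells were then lysed and cAMP measured by competitive HTRF immunoassay (D2-cAMP, cryptate anti-cAMP). Activity was derived as the change in FRET signal relative to DMSO.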

[3] = 1 hour at 37° C., six concentrations 0.0032 to 10 μM, read-out: EC50

SMILES	EC50 [2, 3] [nM]	EC50 ([2]; Table 2, read-out: EC50 value) [nM]	also measured
CC(C)CC(N(C)C)C1(c2ccc(Cl)cc2)CCC1 (stereo not shown) [Comparative Example 4, Sibutramine]			changes in weights of rats (weight-loss effect) [1]: weight loss was observed for 2 weeks; also recorded: the weight rather increased after 2 weeks
CCc1cnc(N2CCC(COc3ccc(C4=CCC(C(=O)N5CCC(C#N)CC5)CC4)cc3C(F)(F)F)CC2)nc1 (stereo not shown) [Example 398, 1-(4-(4-((1-(5-ethylpyrimidin-2-yl)piperidin-4-yl)methoxy)-3-(trifluoromethyl)phenyl)cyclohex-3-enecarbonyl)piperidine-4-carbonitrile]	110		
O=C(C1CC=C(c2ccc(OCC3CCN(C(=O)C4(C(F)(F)F)CCCC4)CC3)c(F)c2)CC1)N1CCCC1 (stereo not shown) [Example 409, (4-(3-fluoro-4-((1-(1-(trifluoromethyl)cyclopentanecarbonyl)piperidin-4-yl)methoxy)phenyl)cyclohex-3-enyl)(pyrrolidin-1-yl)methanone]	62		
CCc1cnc(N2CCC(COc3ccc(C4=CCC(C(=O)N5CC(F)(F)C(F)(F)C5)CC4)c(F)c3)CC2)nc1 (stereo not shown) [Example 455, (4-(4-((1-(5-ethylpyrimidin-2-yl)piperidin-4-yl)methoxy)-2-fluorophenyl)cyclohex-3-enyl)(3,3,4,4-tetrafluoropyrrolidin-1-yl)methanone]	18	≤ 50	
CCc1cnc(N2CCC(COc3ccc(C4=CCC(C(=O)N5CCC(F)(F)C5)CC4)c(F)c3)CC2)nc1 (single isomer, unassigned; (+)) [Example 462, (+)-(3,3-difluoropyrrolidin-1-yl)(4-(4-((1-(5-ethylpyrimidin-2-yl)piperidin-4-yl)methoxy)-2-fluorophenyl)cyclohex-3-enyl)methanone]	14	≤ 50	
CCc1cnc(N2CCC(COc3ccc(C4=CCC(C(=O)N5CCC(CO)CC5)CC4)cn3)CC2)nc1 (stereo not shown) [Example 354, (4-(6-((1-(5-ethylpyrimidin-2-yl)piperidin-4-yl)methoxy)pyridin-3-yl)cyclohex-3-enyl)(4-(hydroxymethyl)piperidin-1-yl)methanone]	22	≤ 50	
CCc1cnc(N2CCC(COc3ccc(C4=CCC(C(=O)N5CCC5)CC4)cc3C#N)CC2)nc1 (stereo not shown) [Example 387, 5-(4-(azetidine-1-carbonyl)cyclohex-1-enyl)-2-((1-(5-ethylpyrimidin-2-yl)piperidin-4-yl)methoxy)benzonitrile]	79		
CCc1cnc(N2CCC(COc3ccc(C4=CCC(C(=O)N5CCOCC5)CC4)cc3C)CC2)nc1 (stereo not shown) [Example 417, (4-(4-((1-(5-ethylpyrimidin-2-yl)piperidin-4-yl)methoxy)-3-methylphenyl)cyclohex-3-enyl)(morpholino)methanone]	50	≤ 50	
CCc1cnc(N2CCC(COc3ccc(C4=CCC(C(=O)NC5CCCC5)CC4)cc3F)CC2)nc1 (stereo not shown) [Example 304, N-cyclopentyl-4-(4-((1-(5-ethylpyrimidin-2-yl)piperidin-4-yl)methoxy)-3-fluorophenyl)cyclohex-3-enecarboxamide]	20	≤ 50	
CCc1cnc(N2CCC(COc3ccc(C4=CCC(C(=O)N5CCC(O)CC5)CC4)cc3F)CC2)nc1 (stereo not shown) [Example 294, (4-(4-((1-(5-ethylpyrimidin-2-yl)piperidin-4-yl)methoxy)-3-fluorophenyl)cyclohex-3-enyl)(4-hydroxypiperidin-1-yl)methanone]	23	≤ 50	
CCc1cnc(N2CCC(COc3ccc(C4=CCC(C(=O)N5CCN(C6CC6)CC5)CC4)cc3)CC2)nc1 (stereo not shown) [Example 395, (4-cyclopropylpiperazin-1-yl)(4-(4-((1-(5-ethylpyrimidin-2-yl)piperidin-4-yl)methoxy)phenyl)cyclohex-3-enyl)methanone]	14		
CC(C)c1noc(N2CCC(COc3ccc(C4=CCC(C(=O)NC5CCCC5)CC4)cc3F)CC2)n1 (stereo not shown) [Example 365, N-cyclopentyl-4-(3-fluoro-4-((1-(3-isopropyl-1,2,4-oxadiazol-5-yl)piperidin-4-yl)methoxy)phenyl)cyclohex-3-enecarboxamide]	38	≤ 50	
CCc1cnc(N2CCC(COc3ccc(C4=CCC(C(=O)N5CCCCC5)CC4)cn3)CC2)nc1 (stereo not shown) [Example 350, (4-(6-((1-(5-ethylpyrimidin-2-yl)piperidin-4-yl)methoxy)pyridin-3-yl)cyclohex-3-enyl)(piperidin-1-yl)methanone]	52		
CC(C)c1noc(N2CCC(COc3ccc(C4=CCC(C(=O)N5CCOCC5)CC4)c(F)c3)CC2)n1 (stereo not shown) [Example 448, (4-(2-fluoro-4-((1-(3-isopropyl-1,2,4-oxadiazol-5-yl)piperidin-4-yl)methoxy)phenyl)cyclohex-3-enyl)(morpholino)methanone]	25	≤ 50	
CCc1cnc(N2CCC(COc3ccc(C4=CCC(C(=O)N5CCN(C(=O)OC(C)(C)C)CC5)CC4)cc3F)CC2)nc1 (stereo not shown) [Example 383, tert-butyl 4-(4-(4-((1-(5-ethylpyrimidin-2-yl)piperidin-4-yl)methoxy)-3-fluorophenyl)cyclohex-3-enecarbonyl)piperazine-1-carboxylate]	48	≤ 50	
O=C(C1CC=C(c2ccc(OCC3CCN(C(=O)C4(C(F)(F)F)CC4)CC3)c(F)c2)CC1)N1CCCC1 (stereo not shown) [Example 421, (4-(3-fluoro-4-((1-(1-(trifluoromethyl)cyclopropanecarbonyl)piperidin-4-yl)methoxy)phenyl)cyclohex-3-enyl)(pyrrolidin-1-yl)methanone]	53		
CCc1cnc(N2CCC(COc3ccc(C4=CCC(C(=O)N5CCC(CO)CC5)CC4)c(F)c3)CC2)nc1 (stereo not shown) [Example 432, (4-(4-((1-(5-ethylpyrimidin-2-yl)piperidin-4-yl)methoxy)-2-fluorophenyl)cyclohex-3-enyl)(4-(hydroxymethyl)piperidin-1-yl)methanone]	29	≤ 50	
CCc1cnc(N2CCC(COc3ccc(C4=CCC(C(=O)NCC(F)(F)F)CC4)cc3F)CC2)nc1 (stereo not shown) [Example 307, 4-(4-((1-(5-ethylpyrimidin-2-yl)piperidin-4-yl)methoxy)-3-fluorophenyl)-N-(2,2,2-trifluoroethyl)cyclohex-3-enecarboxamide]	88		
CON=C1CCN(C(=O)C2CC=C(c3ccc(OCC4CCN(c5nc(C(C)C)no5)CC4)cc3)CC2)CC1 (stereo not shown) [Example 410, (4-(4-((1-(3-isopropyl-1,2,4-oxadiazol-5-yl)piperidin-4-yl)methoxy)phenyl)cyclohex-3-enyl)(4-(methoxyimino)piperidin-1-yl)methanone]	14		
CC(C)OC(=O)N1CCC(COc2ccc(C3=CCC(C(=O)N4CCCC4)CC3)cc2F)CC1 (stereo not shown) [Example 401, isopropyl 4-((2-fluoro-4-(4-(pyrrolidine-1-carbonyl)cyclohex-1-enyl)phenoxy)methyl)piperidine-1-carboxylate]	34	≤ 50	
CC(C)c1noc(N2CCC(COc3ccc(C4=CCC(C(=O)N5CCN(C6CC6)CC5)CC4)cn3)CC2)n1 (stereo not shown) [Example 355, (4-cyclopropylpiperazin-1-yl)(4-(6-((1-(3-isopropyl-1,2,4-oxadiazol-5-yl)piperidin-4-yl)methoxy)pyridin-3-yl)cyclohex-3-enyl)methanone]	46	≤ 50	
CCc1cnc(N2CCC(COc3ccc(C4=CCC(C(=O)N5CCOCC5)CC4)cn3)CC2)nc1 (stereo not shown) [Example 351, (4-(6-((1-(5-ethylpyrimidin-2-yl)piperidin-4-yl)methoxy)pyridin-3-yl)cyclohex-3-enyl)(morpholino)methanone]	41	≤ 50	
CC(C)c1noc(N2CCC(COc3ccc(C4=CCC(C(=O)N5CCC(=O)CC5)CC4)cc3F)CC2)n1 (stereo not shown) [Example 345, 1-(4-(3-fluoro-4-((1-(3-isopropyl-1,2,4-oxadiazol-5-yl)piperidin-4-yl)methoxy)phenyl)cyclohex-3-enecarbonyl)piperid in-4-one]			EC50 ([2]; EC50 (nM), 1 hour at 37° C., six concentrations 0.0032 to 10 μM): 36 nM; EC50 ([2]; EC50 value, Table 2): ≤ 50 nM
CCc1cnc(N2CCC(COc3ccc(C4=CCC(C(=O)N(C)CCCO)CC4)cc3F)CC2)nc1 (stereo not shown) [Example 376, 4-(4-((1-(5-ethylpyrimidin-2-yl)piperidin-4-yl)methoxy)-3-fluorophenyl)-N-(3-hydroxypropyl)-N-methylcyclohex-3-enecarboxamide]	10.5	≤ 50	
O=C(OC(C(F)(F)F)C(F)(F)F)N1CCC(COc2ccc(C3=CCC(C(=O)N4CCCC4)CC3)cc2F)CC1 (stereo not shown) [Example 405, 1,1,1,3,3,3-hexafluoropropan-2-yl 4-((2-fluoro-4-(4-(pyrrolidine-1-carbonyl)cyclohex-1-enyl)phenoxy)methyl)piperidine-1-carboxylate]	59		
